Results as given in patent US20130217694A1, “METHOD OF REDUCING THE SEVERITY OF INFLAMMATORY DERMATOLOGICAL CONDITIONS” (Allergan, Inc.., priority 2003, published 2013).
Entries after “also recorded” stand apart in the source; their conditions may differ.

Legend:
mice [1] = assay: Sulprostone-induced tactile hypersensitivity in mice; type: in vivo, mouse; conditions: for analgesic activity in sulprostone-induced tactile hypersensitivity: result in words
Description: The activity of a synthetic EP1/EP3 receptor-selective prostaglandin agonist, sulprostone, also was assayed.
(§1) Spinal drug injections were performed as follows. […] Briefly, a sterile 30-gauge ½ inch needle attached to a microsyringe was inserted between the L5 and L6 vertebrae. The mouse was held firmly by the pelvic girdle in one hand, while the syringe was held in the other hand at an angle of approximately 20° above the vertebral column. The needle was inserted into the tissue to one side of the L6 spinous process, into the groove between the spinous and transverse processes. The needle angle was decreased to about 10°, and the needle slowly advanced forward into the intervertebral space until a pop was felt and there was a visible serpentine tail movement. Compounds were slowly injected in the subarachnoid space in a volume of 5 μl. Each compound was tested at multiple doses. The minimal efficacious dose was used for all subsequent experiments.
(§2) Sensitivity to light touch was quantified by scoring the response of mice to light stroking of their flanks with a small paintbrush, which is not normally painful. […] Statistical calculations of significance for in vivo studies were done using a two-tailed Students t-test.

human α-2C receptor = molecular target: T1, human α-2C receptor (Homo sapiens, UniProt P18825); assay: Inhibition of forskolin-induced cAMP accumulation in PC12 cells expressing human α-2C receptor; type: cell-based; conditions: percent efficacy relative to brimonidine
T1 construct: expressed in transfected cells; host or cells: PC12 cells (retroviral vector pCL BABE Puro)
T1 sequence (P18825 1-462): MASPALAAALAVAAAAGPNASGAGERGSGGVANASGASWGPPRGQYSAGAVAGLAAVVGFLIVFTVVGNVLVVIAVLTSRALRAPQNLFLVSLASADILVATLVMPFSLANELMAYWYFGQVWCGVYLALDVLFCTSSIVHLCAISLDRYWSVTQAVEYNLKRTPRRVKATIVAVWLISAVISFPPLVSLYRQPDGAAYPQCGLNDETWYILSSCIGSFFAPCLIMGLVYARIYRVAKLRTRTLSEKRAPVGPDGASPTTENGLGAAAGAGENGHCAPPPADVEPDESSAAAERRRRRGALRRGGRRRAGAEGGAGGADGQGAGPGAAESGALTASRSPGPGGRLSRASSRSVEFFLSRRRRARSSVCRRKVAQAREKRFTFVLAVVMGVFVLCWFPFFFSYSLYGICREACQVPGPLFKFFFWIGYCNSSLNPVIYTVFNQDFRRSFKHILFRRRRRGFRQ
Description: (§3) The human α-2A and α-2C receptor supernatants were added, in varying amounts, to naive PC12 cells, which were then incubated for 48 hours. The transduced cell populations were replated at a lower density and grown in media containing 100 ug/ml puromycin.
(§4) Intracellular cAMP measurement was performed as follows. PC12 cells stably expressing the human α-2A or human α-2C adrenergic receptors were plated in 96-well poly-D-lysine coated plates at a density of 30,000 cells per well in 100 μl DMEM supplemented with 10% horse serum, 5% heat inactivated fetal bovine serum, 1% antibiotic-antimycotic and 100 μg/ml puromycin. Cells were grown overnight at 37° C. and 5% CO2. Cells were dosed by adding an equal volume of media containing IBMX (to a final concentration of 1 mM), forskolin (to a final concentration of 10 μM) and the appropriate drug dilution (to a final concentration of between 10^−5 M and 10^−12 M). After a 10 minute incubation, the media was aspirated and the cells lysed with 200 μl lysis buffer (Amersham Biosciences; Piscataway, N.J.). Plates were stored at −20° C. for up to 24 hours prior to assay. Intracellular cAMP was determined using the Biotrak cAMP enzyme immunoassay system (Amersham Biosciences) according to the manufacturer's instructions. Plates were read on a plate reader at 450 nm.

human α-2A receptor = molecular target: T2, human α-2A receptor (Homo sapiens, UniProt P08913); conditions: percent efficacy relative to brimonidine
T2 sequence (P08913 1-465): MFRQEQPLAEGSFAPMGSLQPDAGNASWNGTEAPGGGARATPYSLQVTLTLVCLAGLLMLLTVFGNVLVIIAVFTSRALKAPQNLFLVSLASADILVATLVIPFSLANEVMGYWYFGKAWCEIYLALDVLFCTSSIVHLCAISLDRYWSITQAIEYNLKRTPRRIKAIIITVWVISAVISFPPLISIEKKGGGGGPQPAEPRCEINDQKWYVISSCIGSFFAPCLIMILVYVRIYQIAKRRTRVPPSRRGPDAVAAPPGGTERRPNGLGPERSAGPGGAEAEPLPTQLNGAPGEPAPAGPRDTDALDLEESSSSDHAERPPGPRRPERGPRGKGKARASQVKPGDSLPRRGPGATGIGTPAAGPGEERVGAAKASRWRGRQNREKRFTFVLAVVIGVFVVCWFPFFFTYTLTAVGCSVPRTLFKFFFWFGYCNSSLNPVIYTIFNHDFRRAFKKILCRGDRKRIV
Description: as §3, §4

mice [2] = assay: NMDA-induced tactile hypersensitivity in mice; type: in vivo, mouse; conditions: result in words
Description: as §1, §2

Compound | analgesic activity in sulprostone-induced tactile hypersensitivity (mice [1]; wildtype mice) | analgesic activity in sulprostone-induced tactile hypersensitivity (mice [1]; α-2A knockout mice) | analgesic activity of clonidine co-administered with prazosin (mice [1]; α-2C knockout mice, prazosin 100 ng/kg i.p., clonidine 400 ng i.t., sulprostone 200 ng i.t.) | analgesic activity in sulprostone-induced tactile hypersensitivity (mice [1]; α-2C knockout mice) | human α2C % E (human α-2C receptor) [%] | human α2A % E (human α-2A receptor) [%] | inhibition of NMDA-induced tactile hypersensitivity (mice [2]; wildtype mice) | inhibition of NMDA-induced tactile hypersensitivity (mice [2]; α-2A knockout mice) | inhibition of NMDA-induced tactile hypersensitivity (mice [2]; α-2C knockout mice)
Clc1cccc(Cl)c1N=C1NCCN1 [Clonidine] | analgesic in wildtype mice; also recorded: analgesic in wild type mice | not in α-2A or α-2C knockout mice; also recorded: neither clonidine nor brimonidine were analgesic | restore the analgesic activity | not in α-2A or α-2C knockout mice; also recorded: not in α-2C knockout mice | 84 | 94 | complete inhibition of tactile hypersensitivity | neither clonidine nor brimonidine inhibited | complete inhibition of tactile hypersensitivity
Brc1c(NC2=NCCN2)ccc2nccnc12 [Brimonidine, 5-bromo-6-(2-imidazolin-2-ylamino)quinoxaline] | analgesic | neither clonidine nor brimonidine were analgesic | – | analgesic | 93 | 91 | complete inhibition of tactile hypersensitivity | neither clonidine nor brimonidine inhibited | complete inhibition of tactile hypersensitivity
